Results reported in patent publication US20180271987A1, “Controlled Cell Delivery Vehicle and Treatment of Tumours” (The University of Nottingham, priority 2015, published 2018).

What was measured:
NIH3t3: LSL-eGFP cells = test: Cre recombination assay (eGFP activation); format: cell-based, mouse; conditions: cells pre-treated with the agent
Source text: Previous studies have the avoided issues associated with direct measurement of fluorescent-tagged proteins (such as being unable to distinguish membrane, vesicle or functional cytosolic/nuclear protein) by assaying for the successful nuclear activity of Cre recombinase {Gump, 2010 #2}. This system was used to measure Cre-mediated recombination of a loxP-STOP-loxP (LSL) enhanced green fluorescent protein (eGFP) reporter gene in live NIH3t3 mouse fibroblast cells (NIH3t3: LSL-eGFP cells) as an indicator of cellular uptake (FIG. 18a). This system is rigorous as activation of green fluorescence requires exogenous Cre protein to enter the cell, undergo nuclear-translocation and excise the LSL fragment of the transgene. This must occur in live cells and be non-toxic for the subsequent expression of eGFP. […] To overcome this issue Cre proteins were delivered at limiting dilutions for a short exposure time (1 hour) and the minimum dose required to activate green fluorescence after 48 hours (FIG. 18c) was determined.
To measure Cre Recombinase activity the NIH3t3: LSL-eGFP cell line was created using the pZ/EG plasmid transfection and G-418 selection {Novak, 2000 #6}. […] 2×10^5 cells/well were plated (in 12-well plates), pre-incubated them in DMEM without serum for 1 hour and treated with Cre proteins (0-500 μg/ml) in DMEM without serum. After the Cre incubation cells were trypsinized, replated into complete media and incubated for 2 days. Cells were pre-treated with drugs for the stated time-period in DMEM without serum, were included in Cre-transduction medium and were added after replating. […] After incubations cell were trypsinized, washed, fixed in 4% PFA and % recombined cells was determined by flow cytometry. For mR-Cre-8R and P21-mR-Cre-8R comparisons concentrations of 100 μg/ml and 10 μg/ml were used, respectively and data was expressed as % maximum recombination (i.e. the % relative to the maximum recombination achieved at the stared dose of Cre).

cells = conditions: literature; cited from earlier work

methyl-β-cyclodextrin
effect of drug or enzyme treatment on functional delivery / recombination of HETD-tagged Cre protein (NIH3t3: LSL-eGFP cells): dose-dependent inhibition of functional delivery

Arg-Gly-Asp [RGD]
increase of nanoparticle uptake (cells): 50%

C[C@@H]1[C@H](O)[C@@H](C)/C=C/C=C/CC/C=C/C=C/C=C/C=C/C(O[C@H]2O[C@H](C)[C@@H](O)[C@H](N)[C@@H]2O)CC2O[C@](O)(CC(O)C(O)CCC(O)CC(O)CC(O)CC(=O)O[C@H]1C)CC(O)C2C(=O)O (stereo partly drawn) [nystatin]
effect of drug or enzyme treatment on functional delivery / recombination of HETD-tagged Cre protein (NIH3t3: LSL-eGFP cells): dose-dependent inhibition of functional delivery

N=C(N)NC(=O)c1nc(Cl)c(N)nc1N [Amiloride]
effect of drug or enzyme treatment on functional delivery / recombination of HETD-tagged Cre protein (NIH3t3: LSL-eGFP cells): dose-dependent reduction of functional transduction into cells

C=C1[C@@H](C)[C@H]2[C@H](Cc3ccccc3)NC(=O)[C@]23[C@H](OC(C)=O)/C=C/[C@@](C)(O)C(=O)[C@@H](C)C/C=C/[C@H]3[C@@H]1O [Cytochalasin D]
effect of drug or enzyme treatment on functional delivery / recombination of HETD-tagged Cre protein (NIH3t3: LSL-eGFP cells): dose-dependent reduction of functional transduction into cells

B1: heparinase III: enzyme used to deplete cell membrane GAGs (protein, UniProt Q59289 25-659, looked up)
Heparin-sulfate lyase: QSSSITRKDFDHINLEYSGLEKVNKAVAAGNYDDAAKALLAYYREKSKAREPDFSNAEKPADIRQPIDKVTREMADKALVHQFQPHKGYGYFDYGKDINWQMWPVKDNEVRWQLHRVKWWQAMALVYHATGDEKYAREWVYQYSDWARKNPLGLSQDNDKFVWRPLEVSDRVQSLPPTFSLFVNSPAFTPAFLMEFLNSYHQQADYLSTHYAEQGNHRLFEAQRNLFAGVSFPEFKDSPRWRQTGISVLNTEIKKQVYADGMQFELSPIYHVAAIDIFLKAYGSAKRVNLEKEFPQSYVQTVENMIMALISISLPDYNTPMFGDSWITDKNFRMAQFASWARVFPANQAIKYFATDGKQGKAPNFLSKALSNAGFYTFRSGWDKNATVMVLKASPPGEFHAQPDNGTFELFIKGRNFTPDAGVFVYSGDEAIMKLRNWYRQTRIHSTLTLDNQNMVITKARQNKWETGNNLDVLTYTNPSYPNLDHQRSVLFINKKYFLVIDRAIGEATGNLGVHWQLKEDSNPVFDKTKNRVYTTYRDGNNLMIQSLNADRTSLNEEEGKVSYVYNKELKRPAFVFEKPKKNAGTQNFVSIVYPYDGQKAPEISIRENKGNDFEKGKLNLTLTINGKQQLVLVP
effect of drug or enzyme treatment on functional delivery / recombination of HETD-tagged Cre protein (NIH3t3: LSL-eGFP cells): reduced recombination to basal-levels
